Assay results from article PMC4539532 (Bioorganic & medicinal chemistry letters, 2015).

Key:
[1] = cited from earlier work; for Tmax for brain: rat brain, intraperitoneal injection
[2] = in vitro microsomal stability; settings: n=2, T1/2=Ln2/κ
[3] = molecular target: mGlu4 (Homo sapiens, UniProt Q14833); experiment: competitive binding assay with [^3H]2 in mGlu4 transfected CHO cells; settings: 14 versus 13; 23 versus 2
[4] = molecular target: mGlu1 (Homo sapiens, UniProt Q13255); experiment: selectivity functional assay on mGlu1; assay type: cell-based
[5] = molecular target: mGlu2 (Homo sapiens, UniProt Q14416); experiment: selectivity functional assay on mGlu2; assay type: cell-based
[6] = molecular target: mGlu5 (Homo sapiens, UniProt P41594); experiment: selectivity functional assay on mGlu5; assay type: cell-based
[7] = molecular target: mGlu6 (Homo sapiens, UniProt O15303); experiment: selectivity functional assay on mGlu6; assay type: cell-based
[8] = molecular target: mGlu8 (Homo sapiens, UniProt O00222); experiment: selectivity functional assay on mGlu8; assay type: cell-based
[9] = PET ligand for PBR, cited from earlier work

Chain of mGlu4 (Q14833 33-912): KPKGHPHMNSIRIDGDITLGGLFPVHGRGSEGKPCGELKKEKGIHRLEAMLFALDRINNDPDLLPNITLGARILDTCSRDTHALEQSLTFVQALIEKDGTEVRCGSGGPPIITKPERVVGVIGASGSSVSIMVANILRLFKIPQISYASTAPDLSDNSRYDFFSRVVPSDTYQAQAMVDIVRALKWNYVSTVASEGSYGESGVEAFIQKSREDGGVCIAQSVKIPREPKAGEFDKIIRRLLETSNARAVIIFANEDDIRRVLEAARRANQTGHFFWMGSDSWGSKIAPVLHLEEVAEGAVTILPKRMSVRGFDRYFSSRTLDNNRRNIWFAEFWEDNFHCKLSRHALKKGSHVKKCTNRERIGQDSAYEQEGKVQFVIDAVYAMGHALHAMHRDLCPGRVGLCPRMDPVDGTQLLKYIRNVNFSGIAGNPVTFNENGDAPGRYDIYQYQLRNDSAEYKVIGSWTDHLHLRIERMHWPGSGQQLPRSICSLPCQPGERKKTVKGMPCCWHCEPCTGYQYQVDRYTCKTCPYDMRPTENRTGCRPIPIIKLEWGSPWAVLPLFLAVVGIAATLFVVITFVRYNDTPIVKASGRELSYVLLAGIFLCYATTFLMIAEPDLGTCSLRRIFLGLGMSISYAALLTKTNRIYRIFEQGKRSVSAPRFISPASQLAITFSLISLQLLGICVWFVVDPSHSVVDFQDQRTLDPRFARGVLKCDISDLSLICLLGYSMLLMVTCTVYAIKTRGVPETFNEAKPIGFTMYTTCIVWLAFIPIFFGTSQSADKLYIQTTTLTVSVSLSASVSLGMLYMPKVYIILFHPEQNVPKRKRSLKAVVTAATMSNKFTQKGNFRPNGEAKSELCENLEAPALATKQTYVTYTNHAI
Chain of mGlu6 (O15303 25-877): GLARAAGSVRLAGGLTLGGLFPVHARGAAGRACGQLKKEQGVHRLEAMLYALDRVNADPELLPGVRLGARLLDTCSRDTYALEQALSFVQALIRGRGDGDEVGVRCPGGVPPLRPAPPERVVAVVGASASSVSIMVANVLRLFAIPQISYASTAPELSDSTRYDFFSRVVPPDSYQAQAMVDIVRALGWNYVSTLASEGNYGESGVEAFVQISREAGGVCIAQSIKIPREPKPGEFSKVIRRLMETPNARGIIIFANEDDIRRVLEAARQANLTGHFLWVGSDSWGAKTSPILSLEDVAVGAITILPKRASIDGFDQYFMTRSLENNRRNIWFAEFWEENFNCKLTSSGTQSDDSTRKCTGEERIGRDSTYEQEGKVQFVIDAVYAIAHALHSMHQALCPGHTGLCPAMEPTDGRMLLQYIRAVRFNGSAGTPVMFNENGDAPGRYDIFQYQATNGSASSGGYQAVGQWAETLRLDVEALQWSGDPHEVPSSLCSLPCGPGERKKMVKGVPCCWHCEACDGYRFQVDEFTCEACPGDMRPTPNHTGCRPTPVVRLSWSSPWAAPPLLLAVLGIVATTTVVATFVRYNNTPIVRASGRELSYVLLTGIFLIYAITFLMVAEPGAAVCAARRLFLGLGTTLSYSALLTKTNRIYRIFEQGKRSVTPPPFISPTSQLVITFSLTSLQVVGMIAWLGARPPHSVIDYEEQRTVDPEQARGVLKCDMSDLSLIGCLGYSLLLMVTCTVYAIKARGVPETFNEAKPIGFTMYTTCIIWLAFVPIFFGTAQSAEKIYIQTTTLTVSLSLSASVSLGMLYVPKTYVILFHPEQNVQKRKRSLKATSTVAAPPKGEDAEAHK
Chain of mGlu2 (Q14416 19-872): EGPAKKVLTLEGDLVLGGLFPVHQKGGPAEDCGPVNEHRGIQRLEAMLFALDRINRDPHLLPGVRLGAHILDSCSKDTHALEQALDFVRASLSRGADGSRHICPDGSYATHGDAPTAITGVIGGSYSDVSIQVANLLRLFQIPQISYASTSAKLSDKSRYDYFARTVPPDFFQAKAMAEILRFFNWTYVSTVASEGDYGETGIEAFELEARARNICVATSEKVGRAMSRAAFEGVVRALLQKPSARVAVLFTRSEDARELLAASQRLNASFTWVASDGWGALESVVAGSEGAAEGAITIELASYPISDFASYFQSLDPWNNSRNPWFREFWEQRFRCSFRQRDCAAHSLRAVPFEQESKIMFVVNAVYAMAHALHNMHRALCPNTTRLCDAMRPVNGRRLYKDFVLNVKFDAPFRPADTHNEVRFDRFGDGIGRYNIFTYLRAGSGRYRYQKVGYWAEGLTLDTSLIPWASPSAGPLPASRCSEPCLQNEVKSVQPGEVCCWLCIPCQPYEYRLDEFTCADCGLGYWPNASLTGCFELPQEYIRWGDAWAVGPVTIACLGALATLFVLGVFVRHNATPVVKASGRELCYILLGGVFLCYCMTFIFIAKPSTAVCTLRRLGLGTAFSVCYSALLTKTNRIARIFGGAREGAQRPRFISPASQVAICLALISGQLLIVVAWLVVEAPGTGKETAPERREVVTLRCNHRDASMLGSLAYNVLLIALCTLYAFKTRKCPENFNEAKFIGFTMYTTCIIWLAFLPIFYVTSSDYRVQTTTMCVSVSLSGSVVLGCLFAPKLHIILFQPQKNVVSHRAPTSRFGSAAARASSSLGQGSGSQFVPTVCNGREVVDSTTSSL
Chain of mGlu5 (P41594 21-1212): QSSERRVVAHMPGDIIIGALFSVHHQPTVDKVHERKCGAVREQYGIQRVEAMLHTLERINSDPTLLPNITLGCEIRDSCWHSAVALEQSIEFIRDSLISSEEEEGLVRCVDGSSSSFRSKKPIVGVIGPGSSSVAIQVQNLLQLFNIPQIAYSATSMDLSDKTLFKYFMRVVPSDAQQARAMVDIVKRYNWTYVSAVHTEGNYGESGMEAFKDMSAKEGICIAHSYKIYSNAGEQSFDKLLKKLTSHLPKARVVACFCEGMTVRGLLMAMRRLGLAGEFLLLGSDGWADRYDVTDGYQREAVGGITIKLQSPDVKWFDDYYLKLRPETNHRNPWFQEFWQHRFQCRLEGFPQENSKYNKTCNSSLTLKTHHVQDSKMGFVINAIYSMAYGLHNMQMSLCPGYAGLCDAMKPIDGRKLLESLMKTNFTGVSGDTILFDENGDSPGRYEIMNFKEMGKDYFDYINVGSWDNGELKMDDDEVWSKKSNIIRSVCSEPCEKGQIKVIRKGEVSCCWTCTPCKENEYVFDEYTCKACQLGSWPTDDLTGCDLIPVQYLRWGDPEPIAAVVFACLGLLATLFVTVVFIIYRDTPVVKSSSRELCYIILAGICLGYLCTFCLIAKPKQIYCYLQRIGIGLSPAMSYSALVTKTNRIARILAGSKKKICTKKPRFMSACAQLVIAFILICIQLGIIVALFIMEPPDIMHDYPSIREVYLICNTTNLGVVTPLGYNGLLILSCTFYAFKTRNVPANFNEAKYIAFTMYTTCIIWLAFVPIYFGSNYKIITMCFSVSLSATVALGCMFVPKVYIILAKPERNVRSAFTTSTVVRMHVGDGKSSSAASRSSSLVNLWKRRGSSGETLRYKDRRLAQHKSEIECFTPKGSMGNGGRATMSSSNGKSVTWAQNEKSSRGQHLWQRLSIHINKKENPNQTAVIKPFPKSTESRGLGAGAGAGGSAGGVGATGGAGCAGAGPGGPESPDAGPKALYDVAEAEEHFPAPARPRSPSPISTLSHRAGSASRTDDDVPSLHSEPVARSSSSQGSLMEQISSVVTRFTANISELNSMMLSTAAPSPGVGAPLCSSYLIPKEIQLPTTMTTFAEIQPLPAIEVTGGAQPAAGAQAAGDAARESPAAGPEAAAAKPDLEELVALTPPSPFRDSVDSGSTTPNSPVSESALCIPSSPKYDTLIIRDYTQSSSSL
Chain of mGlu1 (Q13255 19-1194): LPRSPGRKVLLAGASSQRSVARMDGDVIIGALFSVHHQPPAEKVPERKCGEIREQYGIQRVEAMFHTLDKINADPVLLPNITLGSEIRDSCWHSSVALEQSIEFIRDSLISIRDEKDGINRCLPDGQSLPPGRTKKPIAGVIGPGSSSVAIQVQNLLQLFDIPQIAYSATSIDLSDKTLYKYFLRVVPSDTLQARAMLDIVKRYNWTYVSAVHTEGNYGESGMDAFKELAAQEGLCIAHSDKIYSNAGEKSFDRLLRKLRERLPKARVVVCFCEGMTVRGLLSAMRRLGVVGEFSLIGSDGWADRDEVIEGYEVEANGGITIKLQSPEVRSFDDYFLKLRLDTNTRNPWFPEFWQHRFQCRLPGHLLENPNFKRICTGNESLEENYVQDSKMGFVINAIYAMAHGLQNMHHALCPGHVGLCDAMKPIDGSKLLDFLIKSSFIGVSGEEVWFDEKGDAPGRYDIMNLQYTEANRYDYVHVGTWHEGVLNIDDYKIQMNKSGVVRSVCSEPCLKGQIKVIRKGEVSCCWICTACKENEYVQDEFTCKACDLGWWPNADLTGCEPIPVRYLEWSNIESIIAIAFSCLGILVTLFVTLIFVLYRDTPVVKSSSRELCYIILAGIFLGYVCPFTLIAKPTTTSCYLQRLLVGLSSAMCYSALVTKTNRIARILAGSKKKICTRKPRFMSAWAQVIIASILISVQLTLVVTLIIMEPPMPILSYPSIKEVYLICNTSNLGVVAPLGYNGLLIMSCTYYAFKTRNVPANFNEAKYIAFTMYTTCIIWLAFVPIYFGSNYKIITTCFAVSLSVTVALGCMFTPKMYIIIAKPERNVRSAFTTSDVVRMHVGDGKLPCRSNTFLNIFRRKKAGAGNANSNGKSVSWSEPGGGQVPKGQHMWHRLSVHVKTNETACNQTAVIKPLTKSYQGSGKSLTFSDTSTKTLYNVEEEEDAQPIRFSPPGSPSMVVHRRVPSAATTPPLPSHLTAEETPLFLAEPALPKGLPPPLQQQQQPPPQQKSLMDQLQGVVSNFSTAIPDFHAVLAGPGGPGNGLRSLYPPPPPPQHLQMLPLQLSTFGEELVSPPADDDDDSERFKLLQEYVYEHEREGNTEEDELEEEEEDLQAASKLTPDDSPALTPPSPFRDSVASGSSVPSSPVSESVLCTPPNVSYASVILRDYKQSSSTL

## COc1cc(NC(=O)c2ccccn2)ccc1Cl [Compound 2]
[1]
  Tmax for brain: 30 min
[2]
  κ (decay constant, slope of log concentration vs time profile): 0.141

## O=C(Nc1cccc(OC(F)F)c1)c1ccccn1 [Compound 3]
[1]
  Tmax for brain: 30 min
[1]; rat, AUC0–8h, Brain/AUC0–8h, Plasma
  brain:plasma (B/P) partition coefficient: 9.9
[2]
  κ (decay constant, slope of log concentration vs time profile): 0.132

## Cc1ccnc(Nc2nc(-c3cn[nH]c3)c(C)s2)n1 [Compound 4]
[2]
  κ (decay constant, slope of log concentration vs time profile): 0.099

## CSc1cccc(NC(=O)c2ccccn2)c1 [Compound 14]
[3]
  fold enhancement in affinity: 2.8 fold

## O=C(Nc1ccc(Cl)c(OCF)c1)c1ccccn1 [Compound 23]
[2]
  κ (decay constant, slope of log concentration vs time profile): 0.120
[3]
  fold enhancement in affinity: 1.6 fold

## [2H]C([2H])(F)Oc1cc(NC(=O)c2ccccn2)ccc1Cl [Compound 24]
[4]
  activity against mGlu1: little activity
[5]
  activity against mGlu2: little activity
[6]
  activity against mGlu5: little activity
[7]
  activity against mGlu6: little activity
[2]
  κ (decay constant, slope of log concentration vs time profile): 0.093
[8]
  activity against mGlu8: little activity

## [2H]C([2H])([18F])Oc1ccc(OC)cc1CN(C(C)=O)c1cc(F)ccc1Oc1ccccc1 [N-(5-fluoro-2-phenoxyphenyl)-N-(2-[^18F]fluoromethoxy-d2-5-methoxybenzyl)acetamide]
[9]; brain
  half time (T1/2) in the brain: > 60 min
[9]; plasma
  half time (T1/2) in the plasma: 2.575 min
